Measurements taken from ChEMBL document CHEMBL4052645, “Discovery of potent and efficacious pyrrolopyridazines as dual JAK1/3 inhibitors” (Bioorg Med Chem Lett, 2017).

Assays:
[1] = biological target: NUAK family SNF1-like kinase 2 (Homo sapiens) (UniProt Q9H093); assay: Inhibition of human NUAK2 (P22 to A333 residues) expressed in mammalian expression system assessed as residual activity at 50 nM by KINOMEscan assay relative to control
[2] = biological target: Ribosomal protein S6 kinase alpha-6 (Homo sapiens) (UniProt Q9UK32); assay: Inhibition of human N-terminal RSK4 kinase domain 1 (M1 to E397 residues) expressed in mammalian expression system assessed as residual activity at 50 nM by KINOMEscan assay relative to control
[3] = biological target: Leucine-rich repeat serine/threonine-protein kinase 2 (Homo sapiens) (UniProt Q5S007); assay: Inhibition of wild-type human partial length LRRK2 (H970 to E2527 residues) expressed in mammalian expression system assessed as residual activity at 50 nM by Kinomescan method relative to control
[4] = biological target: Serine/threonine-protein kinase SIK2 (Homo sapiens) (UniProt Q9H0K1); assay: Inhibition of wild-type human full length QIK (M1 to N926 residues) expressed in bacterial expression system assessed as residual activity at 50 nM by Kinomescan method relative to control
[5] = biological target: Phosphatidylinositol 5-phosphate 4-kinase type-2 beta (Homo sapiens) (UniProt P78356); assay: Inhibition of wild-type human full length PIP5K2B (M1 to T416 residues) expressed in bacterial expression system assessed as residual activity at 50 nM by Kinomescan method relative to control
[6] = biological target: Ribosomal protein S6 kinase alpha-6 (Homo sapiens) (UniProt Q9UK32); assay: Inhibition of wild-type human partial length C-terminal RSK4 kinase domain 2 (I401 to Y711 residues) expressed in bacterial expression system assessed as residual activity at 50 nM by Kinomescan method relative to control
[7] = biological target: MAP kinase-interacting serine/threonine-protein kinase 1 (Homo sapiens) (UniProt Q9BUB5); assay: Inhibition of wild-type human full length MNK1 (M1 to L424 residues) expressed in mammalian expression system assessed as residual activity at 50 nM by Kinomescan method relative to control
[8] = biological target: cAMP-dependent protein kinase catalytic subunit PRKX (Homo sapiens) (UniProt P51817); assay: Inhibition of wild-type human partial length PRKX (M1 to F358 residues) expressed in bacterial expression system assessed as residual activity at 50 nM by Kinomescan method relative to control
[9] = biological target: Death-associated protein kinase 1 (Homo sapiens) (UniProt P53355); assay: Inhibition of wild-type human partial length DAPK1 (M1 to F296 residues) expressed in bacterial expression system assessed as residual activity at 50 nM by Kinomescan method relative to control
[10] = biological target: Death-associated protein kinase 2 (Homo sapiens) (UniProt Q9UIK4); assay: Inhibition of wild-type human full length DAPK2 (M1 to S370 residues) expressed in bacterial expression system assessed as residual activity at 50 nM by Kinomescan method relative to control
[11] = biological target: Hepatocyte growth factor receptor (Homo sapiens) (UniProt P08581); assay: Inhibition of wild-type human partial length MET (D1010 to S1367 residues) expressed in bacterial expression system assessed as residual activity at 50 nM by Kinomescan method relative to control
[12] = biological target: Tyrosine-protein kinase receptor Tie-1 (Homo sapiens) (UniProt P35590); assay: Inhibition of wild-type human partial length TIE1 (T819 to A1138 residues) expressed in bacterial expression system assessed as residual activity at 50 nM by Kinomescan method relative to control
[13] = biological target: Casein kinase II subunit alpha' (Homo sapiens) (UniProt P19784); assay: Inhibition of wild-type human full length CK2A2 (M1 to R350 residues) expressed in mammalian expression system assessed as residual activity at 50 nM by Kinomescan method relative to control
[14] = biological target: Mitogen-activated protein kinase kinase kinase 13 (Homo sapiens) (UniProt O43283); assay: Inhibition of wild-type human full length LZK (M1 to W966 residues) expressed in mammalian expression system assessed as residual activity at 50 nM by Kinomescan method relative to control
[15] = biological target: Ribosomal protein S6 kinase alpha-4 (Homo sapiens) (UniProt O75676); assay: Inhibition of wild-type human partial length C-terminal MSK2 kinase domain 2 (M375 to T705 residues) expressed in mammalian expression system assessed as residual activity at 50 nM by Kinomescan method relative to control
[16] = biological target: Tyrosine-protein kinase Fyn (Homo sapiens) (UniProt P06241); assay: Inhibition of wild-type human partial length FYN (T243 to L534 residues) expressed in bacterial expression system assessed as residual activity at 50 nM by Kinomescan method relative to control
[17] = biological target: Serine/threonine-protein kinase MARK1 (Homo sapiens) (UniProt Q9P0L2); assay: Inhibition of wild-type human partial length MARK1 (Q30 to T341 residues) expressed in bacterial expression system assessed as residual activity at 50 nM by Kinomescan method relative to control
[18] = biological target: Calcium/calmodulin-dependent protein kinase type IV (Homo sapiens) (UniProt Q16566); assay: Inhibition of wild-type human partial length CAMK4 (A22 to A322 residues) expressed in bacterial expression system assessed as residual activity at 50 nM by Kinomescan method relative to control
[19] = biological target: Casein kinase I isoform gamma-2 (Homo sapiens) (UniProt P78368); assay: Inhibition of wild-type human full length CK1G2 (M1 to K415 residues) expressed in bacterial expression system assessed as residual activity at 50 nM by Kinomescan method relative to control
[20] = biological target: Receptor tyrosine-protein kinase erbB-3 (Homo sapiens) (UniProt P21860); assay: Inhibition of wild-type human partial length ERBB3 (G684 to A987 residues) expressed in mammalian expression system assessed as residual activity at 50 nM by Kinomescan method relative to control
[21] = biological target: Serine/threonine-protein kinase Nek1 (Homo sapiens) (UniProt Q96PY6); assay: Inhibition of wild-type human partial length NEK1 (M1 to K278 residues) expressed in bacterial expression system assessed as residual activity at 50 nM by Kinomescan method relative to control
[22] = biological target: Serine/threonine-protein kinase OSR1 (Homo sapiens) (UniProt O95747); assay: Inhibition of wild-type human full length OSR1 (M1 to S527 residues) expressed in mammalian expression system assessed as residual activity at 50 nM by Kinomescan method relative to control
[23] = biological target: Ankyrin repeat and protein kinase domain-containing protein 1 (Homo sapiens) (UniProt Q8NFD2); assay: Inhibition of wild-type human partial length SGK288 (M1 to A305 residues) expressed in mammalian expression system assessed as residual activity at 50 nM by Kinomescan method relative to control
[24] = biological target: Dual specificity testis-specific protein kinase 1 (Homo sapiens) (UniProt Q15569); assay: Inhibition of wild-type human full length TESK1 (R37 to S626 residues) expressed in bacterial expression system assessed as residual activity at 50 nM by Kinomescan method relative to control
[25] = biological target: Transient receptor potential cation channel subfamily M member 6 (Homo sapiens) (UniProt Q9BX84); assay: Inhibition of wild-type human partial length TRPM6 (Q1723 to I1998 residues) expressed in mammalian expression system assessed as residual activity at 50 nM by Kinomescan method relative to control

SMILES | Activity [1] [%] | Activity [2] [%] | Activity [3] [%] | Activity [4] [%] | Activity [5] [%] | Activity [6] [%] | Activity [7] [%] | Activity [8] [%] | Activity [9] [%] | Activity [10] [%] | Activity [11] [%] | Activity [12] [%] | Activity [13] [%] | Activity [14] [%] | Activity [15] [%] | Activity [16] [%] | Activity [17] [%] | Activity [18] [%] | Activity [19] [%] | Activity [20] [%] | further results
COc1ccc(-c2cc3c(N[C@@H]4CC[C@](C)(N)C4(C)C)c(C(N)=O)cnn3c2)cn1 | 7 | 46 | 25 | 63 | 72 | 96 | 100 | 100 | 96 | 92 | 87 | 97 | 85 | 90 | 100 | 100 | 91 | 100 | 82 | 100 | Activity [21]: 92%; Activity [22]: 100%; Activity [23]: 100%; Activity [24]: 84%; Activity [25]: 90%
CC1(C)[C@H](Nc2c(C(N)=O)cnn3cc(-c4ccccc4)cc23)CC[C@]1(C)N | 2.7 | 14 | 21 | 36 | 47 | 50 | 54 | 59 | 63 | 71 | 88 | 91 | 92 | 93 | 98 | 99 | 99 | 100 | 100 | 100 | Activity [21]: 100%; Activity [22]: 100%; Activity [23]: 100%; Activity [24]: 100%; Activity [25]: 100%
